Measured values as given in patent US20260007681A1, “INDOLE DERIVATIVES AS ESTROGEN RECEPTOR DEGRADERS” (REGENTS OF THE UNIVERSITY OF MICHIGAN, priority 2022, published 2026).
pIC50: −log10 of the molar value.

Legend:
[1] = Cell growth assay (WST-8) (Compounds B1-B278); type: cell-based; conditions: 96 h; T47D cell line; WST-8, 4 days; read-out: Cell Growth Inhibition in T47D cell line IC50
Method in brief: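 Read-out is WST-8 absorbance at 450 nm (2.5 h, 37° C) as a fraction of vehicle control, from three separate repeats. Compound exposure lasted 4 days, starting one day after plating 1500 cells/well.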

ER = ER (Homo sapiens (Human), UniProt P03372); experiment: In-cell western blot analysis of relative ER percentage (Compounds B1-B278); type: cell-based; conditions: ER degradation, 16 hours, read-out: ICW DC50
Method in brief: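 In-cell western: after 16 h compound exposure (0.5% DMSO final), fixed and permeabilized cells are probed with anti-ER plus anti-GAPDH and near-infrared secondaries. Relative ER percentage compares treated wells against untreated and DMSO wells taken as 100%; seeding 40,000 or 10,000 cells/well.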

Chain of ER (P03372 whole entry): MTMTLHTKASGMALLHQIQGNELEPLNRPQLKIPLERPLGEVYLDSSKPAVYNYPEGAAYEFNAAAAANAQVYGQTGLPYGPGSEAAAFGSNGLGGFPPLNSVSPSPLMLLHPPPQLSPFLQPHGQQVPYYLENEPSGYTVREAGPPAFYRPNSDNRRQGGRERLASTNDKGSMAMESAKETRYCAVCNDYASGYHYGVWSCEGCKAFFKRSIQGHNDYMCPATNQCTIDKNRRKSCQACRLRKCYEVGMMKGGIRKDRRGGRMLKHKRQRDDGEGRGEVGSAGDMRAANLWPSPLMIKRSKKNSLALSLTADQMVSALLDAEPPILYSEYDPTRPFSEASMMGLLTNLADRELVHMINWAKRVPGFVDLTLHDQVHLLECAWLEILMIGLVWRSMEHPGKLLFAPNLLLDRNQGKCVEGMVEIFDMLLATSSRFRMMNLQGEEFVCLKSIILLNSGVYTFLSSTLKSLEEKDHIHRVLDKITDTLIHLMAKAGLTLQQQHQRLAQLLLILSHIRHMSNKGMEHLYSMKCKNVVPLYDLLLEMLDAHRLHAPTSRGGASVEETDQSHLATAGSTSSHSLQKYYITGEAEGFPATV

Row | SMILES | pIC50 [1] | DC50 (ER) [µM]
1 | C[C@@H]1Cc2c([nH]c3ccccc23)[C@@H](c2cnc(N3CC4(CCC(CN5CCN6c7ccc8c(c7N(C)C[C@@H]6C5)CN(C5CCC(=O)NC5=O)C8=O)CC4)C3)nc2)N1CC(F)F (stereo partly drawn) [Compound B125, 3-((S)-7-((2-(5-((1R,3R)-2-(2,2-difluoroethyl)-3-methyl-2,3,4,9-tetrahydro-1H-pyrido[3,4-b]indol-1-yl)pyrimidin-2-yl)-2-azaspiro[3.5]nonan-7-yl)methyl)-4-methyl-1-oxo-3,4,5,5a,6,7,8,9-octahydropyrazino[1,2-a]pyrrolo[3,4-f]quinoxalin-2(1H)-yl)piperidine-2,6-dione] | < 8.00 | 0.01 to 0.1
2 | C[C@@H]1Cc2c([nH]c3ccccc23)[C@@H](c2cnc(N3CCC4(CC3)CC(CN3CCN5c6ccc7c(c6N(C)C[C@@H]5C3)CN(C3CCC(=O)NC3=O)C7=O)C4)nc2)N1CC(F)F (stereo partly drawn) [Compound B126, 3-((S)-7-((7-(5-((1R,3R)-2-(2,2-difluoroethyl)-3-methyl-2,3,4,9-tetrahydro-1H-pyrido[3,4-b]indol-1-yl)pyrimidin-2-yl)-7-azaspiro[3.5]nonan-2-yl)methyl)-4-methyl-1-oxo-3,4,5,5a,6,7,8,9-octahydropyrazino[1,2-a]pyrrolo[3,4-f]quinoxalin-2(1H)-yl)piperidine-2,6-dione] | < 8.00 | 0.01 to 0.1
3 | C[C@@H]1Cc2c([nH]c3ccccc23)[C@@H](c2cnc(N3CCC(CN4CCC5(CCOc6c5ccc5c6CN(C6CCC(=O)NC6=O)C5=O)CC4)CC3)nc2)N1CC(F)F (stereo partly drawn) [Compound B127, 3-(1-((1-(5-((1R,3R)-2-(2,2-difluoroethyl)-3-methyl-2,3,4,9-tetrahydro-1H-pyrido[3,4-b]indol-1-yl)pyrimidin-2-yl)piperidin-4-yl)methyl)-7′-oxo-2′,3′,7′,9′-tetrahydro-8′H-spiro[piperidine-4,4′-pyrano[2,3-e]isoindol]-8′-yl)piperidine-2,6-dione] | 8.00 to 9.00 | 0.01 to 0.1
4 | COc1cc(N2CCC3(CCN(C(=O)CN4Cc5cc6c(cc5C4)C(=O)N(C4CCC(=O)NC4=O)C6=O)CC3)CC2)ccc1[C@@H]1c2[nH]c3ccccc3c2C[C@@H](C)N1CC(F)F (stereo partly drawn) [Compound B128, 6-(2-(9-(4-((1R,3R)-2-(2,2-difluoroethyl)-3-methyl-2,3,4,9-tetrahydro-1H-pyrido[3,4-b]indol-1-yl)-3-methoxyphenyl)-3,9-diazaspiro[5.5]undecan-3-yl)-2-oxoethyl)-2-(2,6-dioxopiperidin-3-yl)-6,7-dihydropyrrolo[3,4-f]isoindole-1,3(2H,5H)-dione] | 8.00 to 9.00 | < 0.01
5 | COc1cc(N2CC3(CCC(CN4CCC5(CC4)COc4c5ccc5c4CN(C4CCC(=O)NC4=O)C5=O)CC3)C2)ccc1[C@@H]1c2[nH]c3ccccc3c2C[C@@H](C)N1CC(F)F (stereo partly drawn) [Compound B129, 3-(1′-((2-(4-((1R,3R)-2-(2,2-difluoroethyl)-3-methyl-2,3,4,9-tetrahydro-1H-pyrido[3,4-b]indol-1-yl)-3-methoxyphenyl)-2-azaspiro[3.5]nonan-7-yl)methyl)-6-oxo-6,8-dihydro-2H,7H-spiro[furo[2,3-e]isoindole-3,4′-piperidin]-7-yl)piperidine-2,6-dione] | > 9.00 | 0.01 to 0.1
6 | COc1c2c(cc3c1CN(C1CCC(=O)NC1=O)C3=O)CN(CC(=O)N1CCC3(CC1)CCN(c1cc(F)c([C@@H]4c5[nH]c6ccccc6c5C[C@@H](C)N4CC(F)F)c(F)c1)CC3)C2 (stereo partly drawn) [Compound B130, 3-(6-(2-(9-(4-((1R,3R)-2-(2,2-difluoroethyl)-3-methyl-2,3,4,9-tetrahydro-1H-pyrido[3,4-b]indol-1-yl)-3,5-difluorophenyl)-3,9-diazaspiro[5.5]undecan-3-yl)-2-oxoethyl)-4-methoxy-1-oxo-3,5,6,7-tetrahydropyrrolo[3,4-f]isoindol-2(1H)-yl)piperidine-2,6-dione] | 8.00 to 9.00 | 0.01 to 0.1
7 | C[C@@H]1Cc2c([nH]c3ccccc23)[C@@H](c2cnc(N3CCC4(CC3)CC(CN3CCN5c6cc7c(cc6OC[C@@H]5C3)C(=O)N(C3CCC(=O)NC3=O)C7)C4)nc2)N1CC(F)F (stereo partly drawn) [Compound B135, 3-((S)-3-((7-(5-((1R,3R)-2-(2,2-difluoroethyl)-3-methyl-2,3,4,9-tetrahydro-1H-pyrido[3,4-b]indol-1-yl)pyrimidin-2-yl)-7-azaspiro[3.5]nonan-2-yl)methyl)-8-oxo-1,2,3,4,4a,5,8,10-octahydro-9H-pyrazino[1′,2′:4,5][1,4]oxazino[2,3-f]isoindol-9-yl)piperidine-2,6-dione] | 8.00 to 9.00 | < 0.01
8 | C[C@@H]1Cc2c([nH]c3ccccc23)[C@@H](c2cnc(N3CCC4(CCC(CN5CCN6c7cc8c(cc7OC[C@@H]6C5)C(=O)N(C5CCC(=O)NC5=O)C8)CC4)CC3)nc2)N1CC(F)F (stereo partly drawn) [Compound B136, 3-((S)-3-((3-(5-((1R,3R)-2-(2,2-difluoroethyl)-3-methyl-2,3,4,9-tetrahydro-1H-pyrido[3,4-b]indol-1-yl)pyrimidin-2-yl)-3-azaspiro[5.5]undecan-9-yl)methyl)-8-oxo-1,2,3,4,4a,5,8,10-octahydro-9H-pyrazino[1′,2′:4,5][1,4]oxazino[2,3-f]isoindol-9-yl)piperidine-2,6-dione] | < 8.00 | 0.01 to 0.1
9 | C[C@@H]1Cc2c([nH]c3ccccc23)[C@@H](c2cnc(N3CCC4(CCC(CN5CCN6c7cc8c(cc7OC[C@@H]6C5)C(=O)N(C5CCC(=O)NC5=O)C8)CC4)CC3)nc2)N1CC(C)(C)F (stereo partly drawn) [Compound B137, 3-((S)-3-((3-(5-((1R,3R)-2-(2-fluoro-2-methylpropyl)-3-methyl-2,3,4,9-tetrahydro-1H-pyrido[3,4-b]indol-1-yl)pyrimidin-2-yl)-3-azaspiro[5.5]undecan-9-yl)methyl)-8-oxo-1,2,3,4,4a,5,8,10-octahydro-9H-pyrazino[1′,2′:4,5][1,4]oxazino[2,3-f]isoindol-9-yl)piperidine-2,6-dione] | < 8.00 | 0.01 to 0.1
10 | C[C@@H]1Cc2c([nH]c3ccccc23)[C@@H](c2cnc(N3CCC4(CCC(N5CCN6c7cc8c(cc7OC[C@@H]6C5)C(=O)N(C5CCC(=O)NC5=O)C8)CC4)CC3)nc2)N1CC(F)F (stereo partly drawn) [Compound B138, 3-((S)-3-(3-(5-((1R,3R)-2-(2,2-difluoroethyl)-3-methyl-2,3,4,9-tetrahydro-1H-pyrido[3,4-b]indol-1-yl)pyrimidin-2-yl)-3-azaspiro[5.5]undecan-9-yl)-8-oxo-1,2,3,4,4a,5,8,10-octahydro-9H-pyrazino[1′,2′:4,5][1,4]oxazino[2,3-f]isoindol-9-yl)piperidine-2,6-dione] | 8.00 to 9.00 | 0.01 to 0.1
11 | C[C@@H]1Cc2c([nH]c3ccccc23)[C@@H](c2cnc(N3CCC4(CCC(N5CCN6c7cc8c(cc7OC[C@@H]6C5)C(=O)N(C5CCC(=O)NC5=O)C8)CC4)CC3)nc2)N1CC(C)(C)F (stereo partly drawn) [Compound B139, 3-((S)-3-(3-(5-((1R,3R)-2-(2-fluoro-2-methylpropyl)-3-methyl-2,3,4,9-tetrahydro-1H-pyrido[3,4-b]indol-1-yl)pyrimidin-2-yl)-3-azaspiro[5.5]undecan-9-yl)-8-oxo-1,2,3,4,4a,5,8,10-octahydro-9H-pyrazino[1′,2′:4,5][1,4]oxazino[2,3-f]isoindol-9-yl)piperidine-2,6-dione] | 8.00 to 9.00 | < 0.01
12 | COc1cc(N2CCC3(CC2)CC(CN2CCC4(CC2)COc2c4ccc4c2CN(C2CCC(=O)NC2=O)C4=O)C3)ccc1[C@@H]1c2[nH]c3ccccc3c2C[C@@H](C)N1CC(F)F (stereo partly drawn) [Compound B140, 3-(1′-((7-(4-((1R,3R)-2-(2,2-difluoroethyl)-3-methyl-2,3,4,9-tetrahydro-1H-pyrido[3,4-b]indol-1-yl)-3-methoxyphenyl)-7-azaspiro[3.5]nonan-2-yl)methyl)-6-oxo-6,8-dihydro-2H,7H-spiro[furo[2,3-e]isoindole-3,4′-piperidin]-7-yl)piperidine-2,6-dione] | > 9.00 | < 0.01
13 | COc1cc(N2CCC3(CC2)CC(CN2CCN4c5cc6c(cc5OC[C@@H]4C2)C(=O)N(C2CCC(=O)NC2=O)C6)C3)ccc1[C@@H]1c2[nH]c3ccccc3c2C[C@@H](C)N1CC(F)F (stereo partly drawn) [Compound B141, 3-((S)-3-((7-(4-((1R,3R)-2-(2,2-difluoroethyl)-3-methyl-2,3,4,9-tetrahydro-1H-pyrido[3,4-b]indol-1-yl)-3-methoxyphenyl)-7-azaspiro[3.5]nonan-2-yl)methyl)-8-oxo-1,2,3,4,4a,5,8,10-octahydro-9H-pyrazino[1′,2′:4,5][1,4]oxazino[2,3-f]isoindol-9-yl)piperidine-2,6-dione] | 8.00 to 9.00 | < 0.01
14 | COc1cc(N2CCC3(CC2)CC(CN2CCN4c5cc6c(cc5OC[C@@H]4C2)C(=O)N(C2CCC(=O)NC2=O)C6)CO3)ccc1[C@@H]1c2[nH]c3ccccc3c2C[C@@H](C)N1CC(F)F (stereo partly drawn) [Compound B142, 3-((4aS)-3-((8-(4-((1R,3R)-2-(2,2-difluoroethyl)-3-methyl-2,3,4,9-tetrahydro-1H-pyrido[3,4-b]indol-1-yl)-3-methoxyphenyl)-1-oxa-8-azaspiro[4.5]decan-3-yl)methyl)-8-oxo-1,2,3,4,4a,5,8,10-octahydro-9H-pyrazino[1′,2′:4,5][1,4]oxazino[2,3-f]isoindol-9-yl)piperidine-2,6-dione] | > 9.00 | 0.01 to 0.1
15 | COc1cc(N2CCC3(CC2)CC(CN2CCN4c5ccc6c(c5OC[C@H]4C2)CN(C2CCC(=O)NC2=O)C6=O)CO3)ccc1[C@@H]1c2[nH]c3ccccc3c2C[C@@H](C)N1CC(F)F (stereo partly drawn) [Compound B143, 3-((5aR)-7-((8-(4-((1R,3R)-2-(2,2-difluoroethyl)-3-methyl-2,3,4,9-tetrahydro-1H-pyrido[3,4-b]indol-1-yl)-3-methoxyphenyl)-1-oxa-8-azaspiro[4.5]decan-3-yl)methyl)-1-oxo-1,3,5,5a,6,7,8,9-octahydro-2H-pyrazino[1′,2′:4,5][1,4]oxazino[2,3-e]isoindol-2-yl)piperidine-2,6-dione] | > 9.00 | < 0.01
